≈ marks a conversion by molar mass, not a printed value.

In the first test the test system is Mycobacterium tuberculosis. The test is described as follows: Antimycobacterial activity against multidrug-resistant Mycobacterium tuberculosis 375 by microplate Alamar blue assay. It counts as functional.
`O=C(/C=C/c1ccc2c(c1)OCO2)NCc1ccccc1` showed an MIC of 667 µM (≈ 188 µg/mL). Same read-out and setting: next, `CN(C)c1ccc(CNC(=O)/C=C/c2ccc3c(c2)OCO3)cc1`: 3560 µM (≈ 1150 µg/mL). For the compound `CC(C)=CCOc1ccc(/C=C/C(=O)NCC(C)C)cc1`, it took 1200 µM (≈ 345 µg/mL) to inhibit growth (MIC). Still for that read-out and setting: next, `O=C(/C=C/c1ccc2c(c1)OCO2)NCc1ccc(N2CCC(C(F)(F)F)CC2)cc1`: 2310 µM (≈ 1000 µg/mL); `O=C(/C=C/c1ccc2c(c1)OCO2)NCc1ccccc1Cl`: 792 µM (≈ 250 µg/mL); `O=C(/C=C/c1ccc2c(c1)OCO2)NCc1ccc(C(F)(F)F)cc1F`: 1020 µM (≈ 375 µg/mL). On the same count and under the same terms, next, `O=C(/C=C/c1ccc2c(c1)OCO2)NCc1cc(F)cc(F)c1`: 788 µM (≈ 250 µg/mL). The same measure, in the same setting: the figure for `O=C(/C=C/c1ccc2c(c1)OCO2)NCc1ccc(N2CCC(c3ccc(F)cc3)CC2)cc1` is 545 µM (≈ 250 µg/mL). Turning to `COc1cccc(CNC(=O)/C=C/c2ccc3c(c2)OCO3)c1`, it took 803 µM (≈ 250 µg/mL) to inhibit growth (MIC).

Another test relates to Mycobacterium tuberculosis. Nature of the test: Antimycobacterial activity against multidrug-resistant Mycobacterium tuberculosis 375. It counts as functional.
Regarding `CC(C)CNC(=O)/C=C/c1ccc2c(c1)OCO2` [FOGARAMIDE], the MIC came out at 1010 µM (≈ 250 µg/mL).
